The values below come from patent US20060257484A1, “Combination of tramadol and substances that comprise gabapentin” (priority 2005, published 2006).

Structures can show the parent of a compound that is named as a salt. Where two headings read alike, the source gives them in different places.

A short description of series [1]: Expected pharmacokinetic parameters in rat after tramadol HCl plus gabapentin (model). The source says:
In another modeling approach, the dose of gabapentin for humans can be evaluated in order to match the AUCinf ratio for gabapentin to tramadol and O-demthyltramadol in rat.

For series [2] the following is noted: cited from earlier work.
Series [3] can be described thus: Expected human pharmacokinetic parameters at 200 mg tramadol per day (model matching rat AUCinf ratio). The settings on record: 200 mg tramadol per day for humans; for expected Cavg: gabapentin at 6.77 fold AUC ratio (daily dose 505 mg gabapentin equivalent). Type of series: in vivo. The source says: Additional ranges can be determined for other species.
The conditions of series [4]: single oral dose 10 mg/kg tramadol HCl, 8 male Sprague-Dawley rats, cited from earlier work.
For series [5] the following is noted: steady state, cited from earlier work.
Series [6] deals with Chung model. The settings on record: Chung model disclosed in Codd; cited from earlier work.
The conditions of series [7]: single oral dose 25 mg/kg gabapentin, 6 male Sprague-Dawley rats; cited from earlier work.
For series [8] the following is noted: higher doses increase less than expected; cited from earlier work.
The mark [9] stands for this setting: single administration of 10 mg/kg tramadol HCl and 5 mg/kg gabapentin, assuming no pharmacokinetic interaction.
The mark [10] stands for this setting: after five days of tramadol 100 mg twice daily.
Where [11] appears, read: Immediate Release Capsule, 50 mg four times daily.
The mark [12] stands for this setting: Modified Release Formulation, 200 mg once daily.

On to `CN(C)CC1CCCCC1(O)c1cccc(O)c1` (racemic) [(±) M1, trans-O-demethyltramadol], for which, in series [1] (setting [9]), the “expected AUCinf” value was 523 ng·h/mL and the “expected Cmax” value is 331 ng/mL.

In the case of `COc1cccc(C2(O)CCCCC2CN(C)C)c1` (racemic) [tramadol], in series [2] (setting [10]), the “AUC0-12 at steady state” value is 2970 ng·h/mL and the “Cmax at steady state” value was 414 ng/mL. Moreover, the “Cmax and AUCinf versus dose” value in series [2] (tramadol 400 mg given) is listed as “proportional to the dose”.

`CN(C)CC1CCCCC1(O)c1cccc(O)c1` (single isomer, unassigned; (+)) [(+) M1, trans-O-demethyltramadol]: in series [3], the “expected Cmax” value was determined as 36 ng/mL, the “expected Cmin” value amounted to 21 ng/mL and the “expected Cavg” value was found to be 11 ng/mL. Further, in series [4] (10 mg/kg), the AUCinf is recorded as 16242 (2648) μg L^−1 min, the Cmax was 136 (32) μg/L and the Tmax was 34 (21) min. Further, in series [5] (setting [11]), the AUC0-24 is 644 ng·h/mL, the Cmax is recorded as 36 ng/mL and the Cmin is recorded as 21 ng/mL. Moreover, in series [5] (setting [12]), the AUC0-24 was 704.12 (327.09) ng * h/ml, the Cmax is listed as 42 (18.4) ng/mL and the Cmin is given as 16.71 (10.41) ng/mL.

`CN(C)CC1CCCCC1(O)c1cccc(O)c1` (single isomer, unassigned; (-)) [(−) M1, trans-O-demethyltramadol]: in series [3], the “expected Cmax” value was 43 ng/mL, the “expected Cmin” value was determined as 22 ng/mL and the “expected Cavg” value is 12 ng/mL. Besides, in series [4] (10 mg/kg), the AUCinf is reported as 21178 (1987) μg L^−1 min, the Cmax is 195 (63) μg/L and the Tmax is on record as 41 (24) min. In addition, in series [5] (setting [11]), the AUC0-24 was 690 ng·h/mL, the Cmax was 43 ng/mL and the Cmin is reported as 22 ng/mL. For the same molecule, in series [5] (setting [12]), the AUC0-24 is reported as 745 (286) ng * h/ml, the Cmax is given as 46 (18) ng/mL and the Cmin is 16 (8) ng/mL.

With `COc1cccc(C2(O)CCCCC2CN(C)C)c1` (single isomer, unassigned; (-)) [(−)-trans-T], in series [3], the “expected Cmax” value came out at 157 ng/mL, the “expected Cmin” value is 86 ng/mL and the “expected Cavg” value is 113 ng/mL. Besides, in series [4], the AUCinf is 5257 µg·min/L, the Cmax is 74 µg/L and the Tmax is reported as 22 min. For the same molecule, in series [5] (setting [11]), the AUC0-24 was 2719 ng·h/mL, the Cmax was 157 ng/mL and the Cmin is listed as 86 ng/mL. In addition, in series [5] (setting [12]), the AUC0-24 is given as 3005 (1120) ng * h/ml, the Cmax is on record as 199 (75) ng/mL and the Cmin is 62 (30) ng/mL.

Consider `COc1cccc([C@@]2(O)CCCC[C@@H]2CN(C)C)c1` [(+)-trans-T], for which, in series [3], the “expected Cmax” value came to 190 ng/mL, the “expected Cmin” value stood at 111 ng/mL and the “expected Cavg” value stood at 143 ng/mL. In series [4], the AUCinf is 21501 µg·min/L, the Cmax was 193 µg/L and the Tmax was 22 min. Further, in series [5] (setting [11]), the AUC0-24 is 3429 ng·h/mL, the Cmax is recorded as 190 ng/mL and the Cmin is reported as 111 ng/mL. Further, in series [5] (setting [12]), the AUC0-24 is 3763 (1275) ng * h/ml, the Cmax is 239 (81) ng/mL and the Cmin is given as 81 (36) ng/mL.

With `NCC1(CC(=O)O)CCCCC1` [Gabapentin, gabapentin], the “AUCinf for gabapentin relative to that for (±) tramadol and (±) O-demthyltramadol” value in series [1] (Chung model (rat)) was found to be 6.77 fold. Besides, the “expected Cavg” value in series [3] is 1890 ng/mL. In series [6], the ED50 is 439.50 mg/kg. Besides, in series [7], the AUCinf was 32800 ng·h/mL, the Cmax was 6850 ng/mL and the Tmax was 108 min. Further, the “dose up to which serum concentrations increase linearly” value in series [8] is given as “up to 1800 mg/d”.

As for `COc1cccc(C2(O)CCCCC2CN(C)C)c1` (stereo not shown) [tramadol HCl], the 50% effective dose (ED50) in series [6] was 94.47 mg/kg.
